Source: the NIST ThermoML archive (doi:10.1016/j.jct.2014.09.020)

Assay: xn = mol fraction of the nth substance listed
Settings: Liquid; for speed of sound: Frequency=4 MHz, Single path-length method; for mass density: Vibrating tube method

c1ccc2c(c1)CCCC2 [1,2,3,4-tetrahydronaphthalene] + CCCCCCCCCCCCCCCC
Settings | mass density, 100 kPa [kg/m3] | speed of sound, 100 kPa [m/s] | speed of sound, 5000 kPa [m/s] | speed of sound, 10000 kPa [m/s] | speed of sound, 15000 kPa [m/s] | speed of sound, 20000 kPa [m/s] | speed of sound, 25000 kPa [m/s]
313.15 K, x2 = 0 | 952.93 | 1413 | 1434 | 1455 | 1475 | 1495 | 1513
313.15 K, x2 = 0.2491 | 871.85 | 1346 | 1371 | 1395 | 1418 | 1441 | 1461
313.15 K, x2 = 0.4995 | 820.52 | 1315 | 1342 | 1367 | 1391 | 1414 | 1438
313.15 K, x2 = 0.75 | 785.3 | 1298 | 1326 | 1352 | 1378 | 1403 | 1427
323.15 K, x2 = 0 | 944.99 | 1374 | 1397 | 1419 | 1439 | 1459 | 1480
323.15 K, x2 = 0.2491 | 864.36 | 1311 | 1337 | 1361 | 1385 | 1408 | 1429
323.15 K, x2 = 0.4995 | 813.31 | 1278 | 1306 | 1333 | 1358 | 1383 | 1406
323.15 K, x2 = 0.75 | 778.26 | 1262 | 1291 | 1319 | 1345 | 1369 | 1393
333.15 K, x2 = 0 | 937.04 | 1335 | 1359 | 1383 | 1402 | 1425 | 1445
333.15 K, x2 = 0.2491 | 856.85 | 1274 | 1300 | 1326 | 1350 | 1374 | 1396
333.15 K, x2 = 0.4995 | 806.07 | 1242 | 1271 | 1298 | 1325 | 1350 | 1374
333.15 K, x2 = 0.75 | 771.21 | 1224 | 1253 | 1282 | 1309 | 1335 | 1361
